The record followed here is the OPERA property sets (Mansouri et al. 2018).

The conditions of the data set: for solubility: 25 °C.

≈ marks a conversion by molar mass, not a printed value.

For `NS(=O)(=O)c1ccc(S(=O)(=O)CCCCO)cc1`, the solubility was 7.16 mM (≈ 2100 µg/mL).
As to `NS(=O)(=O)c1ccc(S(=O)(=O)CCCCO)c(F)c1`, the logP is -0.26.
On the same count and under the same terms, to `CC(=O)OCCCS(=O)(=O)c1ccc(S(N)(=O)=O)s1` belongs 0.17.
For `NS(=O)(=O)c1ccc(SCCO)c([N+](=O)[O-])c1`, the logP was 0.38 and the solubility was found to be 1.8 mM (≈ 500 µg/mL).
The compound `CC(=O)OCCCc1ccc(S(N)(=O)=O)cc1` yielded a logP of 0.98.
Take `NS(=O)(=O)c1ccc(SCCCO)cc1`: the logP stood at 0.8 and the solubility came to 5.66 mM (≈ 1400 µg/mL).
`Nc1cc(S(N)(=O)=O)ccc1S(=O)(=O)CCCO` had a logP of -0.48.
In the case of `NS(=O)(=O)c1ccc(SCCCCCO)cc1`, the logP was 1.04 and the solubility worked out at 2.18 mM (≈ 600 µg/mL).
In turn, `NS(=O)(=O)c1ccc(SCCO)c(F)c1` gave a logP of 0.72 and a solubility of 23.9 mM (≈ 6000 µg/mL).
`CC(=O)OCCCCCc1ccc(S(N)(=O)=O)cc1` gave a logP of 1.86.
In turn, `CC(=O)OCCS(=O)(=O)c1ccc(S(N)(=O)=O)s1` registered a logP of 0.11.
Regarding `CC(C)(O)CCSc1ccc(S(N)(=O)=O)cc1`, the logP stood at 1.4 and the solubility is 1.45 mM (≈ 400 µg/mL).
Take `NS(=O)(=O)c1ccc(SCCO)cc1`: the logP was determined as 0.36 and the solubility is 15 mM (≈ 3500 µg/mL).
Compound `NS(=O)(=O)c1ccc(S(=O)(=O)CCO)cc1` registered a logP of -0.85 and a solubility of 24.9 mM (≈ 6600 µg/mL).
Turning to `COC(=O)c1cc(S(N)(=O)=O)ccc1S(=O)(=O)CCO`, the logP is -0.47.
The compound `NS(=O)(=O)c1ccc(S(=O)(=O)CCCO)c(F)c1` gave a logP of -0.41 and a solubility of 22.2 mM (≈ 6600 µg/mL).
On to `CC(C)(O)CCS(=O)(=O)c1ccc(S(N)(=O)=O)cc1`, for which the logP is -0.09 and the solubility came out at 11.4 mM (≈ 3500 µg/mL).
On to `CC(C)CNCCS(=O)(=O)c1ccc(S(N)(=O)=O)cc1`, for which the logP stood at 0.23.
Consider `COCC(=O)OCCCS(=O)(=O)c1ccc(S(N)(=O)=O)s1`, for which the logP was -0.14.
`NS(=O)(=O)c1ccc(S(=O)(=O)CCO)c(F)c1` showed a logP of -0.6 and a solubility of 11.6 mM (≈ 3300 µg/mL).
Compound `NS(=O)(=O)c1ccc(SCCCO)c(Cl)c1` returned a logP of 1.59.
On to `NS(=O)(=O)c1ccc(CCCCCO)cc1`, for which the logP was 1.04 and the solubility worked out at 10.7 mM (≈ 2600 µg/mL).
Consider `NS(=O)(=O)c1ccc(SCCCO)s1`, for which the logP was determined as 0.85.
For `NS(=O)(=O)c1ccc(SCCCCO)c(F)c1`, the log partition coefficient (logP) came out at 1.28 and the solubility was found to be 3.58 mM (≈ 1000 µg/mL).
`NS(=O)(=O)c1ccc(SCCCCO)s1` gave a logP of 0.95 and a solubility of 34.8 mM (≈ 9300 µg/mL).
The like results for `NS(=O)(=O)c1ccc(CCCO)cc1` were, in that order, 0.17 and 92.9 mM (≈ 20000 µg/mL).
`NS(=O)(=O)c1ccc(SCCCO)c(F)c1` yielded a logP of 0.99 and a solubility of 3.39 mM (≈ 900 µg/mL).
As for `NS(=O)(=O)c1ccc(S(=O)(=O)CCCCO)s1`, the logP was -0.34.
Still for that read-out and setting: to `NS(=O)(=O)c1ccc(S(=O)(=O)CCCO)s1` belongs -0.36; to `Nc1cc(S(N)(=O)=O)ccc1S(=O)(=O)CCO`, -0.6.
For the compound `NS(=O)(=O)c1ccc(S(=O)(=O)CCCO)cc1`, the logP was -0.64 and the solubility was found to be 25.8 mM (≈ 7200 µg/mL).
With `COC(=O)c1cc(S(N)(=O)=O)ccc1S(=O)(=O)CCCO`, the logP is -0.3.
`NS(=O)(=O)c1ccc(SCCCO)c([N+](=O)[O-])c1` came in with a logP of 0.96 and a solubility of 0.342 mM (≈ 100 µg/mL).
The like results for `NS(=O)(=O)c1ccc(CCCCO)cc1` were, in that order, 0.57 and 64.1 mM (≈ 14700 µg/mL).
Turning to `NS(=O)(=O)c1ccc(SCCCCO)cc1`, the logP amounted to 0.93 and the solubility was 3.06 mM (≈ 800 µg/mL).
`COC(=O)c1cc(S(N)(=O)=O)ccc1SCCCO` yielded a logP of 0.74.
